# Test results: patent US12662491B2 (Redona Therapeutics, Inc., priority 2020, dated 2026)
# Target: T1, Zcchc11 enzyme (Homo sapiens, UniProt Q5TAX3)
# T1 construct: made in house; host or cells: HEK293 cells (Zcchc11); E. coli Rosetta II (LIN28A)
# T1 sequence (Q5TAX3 212-1420): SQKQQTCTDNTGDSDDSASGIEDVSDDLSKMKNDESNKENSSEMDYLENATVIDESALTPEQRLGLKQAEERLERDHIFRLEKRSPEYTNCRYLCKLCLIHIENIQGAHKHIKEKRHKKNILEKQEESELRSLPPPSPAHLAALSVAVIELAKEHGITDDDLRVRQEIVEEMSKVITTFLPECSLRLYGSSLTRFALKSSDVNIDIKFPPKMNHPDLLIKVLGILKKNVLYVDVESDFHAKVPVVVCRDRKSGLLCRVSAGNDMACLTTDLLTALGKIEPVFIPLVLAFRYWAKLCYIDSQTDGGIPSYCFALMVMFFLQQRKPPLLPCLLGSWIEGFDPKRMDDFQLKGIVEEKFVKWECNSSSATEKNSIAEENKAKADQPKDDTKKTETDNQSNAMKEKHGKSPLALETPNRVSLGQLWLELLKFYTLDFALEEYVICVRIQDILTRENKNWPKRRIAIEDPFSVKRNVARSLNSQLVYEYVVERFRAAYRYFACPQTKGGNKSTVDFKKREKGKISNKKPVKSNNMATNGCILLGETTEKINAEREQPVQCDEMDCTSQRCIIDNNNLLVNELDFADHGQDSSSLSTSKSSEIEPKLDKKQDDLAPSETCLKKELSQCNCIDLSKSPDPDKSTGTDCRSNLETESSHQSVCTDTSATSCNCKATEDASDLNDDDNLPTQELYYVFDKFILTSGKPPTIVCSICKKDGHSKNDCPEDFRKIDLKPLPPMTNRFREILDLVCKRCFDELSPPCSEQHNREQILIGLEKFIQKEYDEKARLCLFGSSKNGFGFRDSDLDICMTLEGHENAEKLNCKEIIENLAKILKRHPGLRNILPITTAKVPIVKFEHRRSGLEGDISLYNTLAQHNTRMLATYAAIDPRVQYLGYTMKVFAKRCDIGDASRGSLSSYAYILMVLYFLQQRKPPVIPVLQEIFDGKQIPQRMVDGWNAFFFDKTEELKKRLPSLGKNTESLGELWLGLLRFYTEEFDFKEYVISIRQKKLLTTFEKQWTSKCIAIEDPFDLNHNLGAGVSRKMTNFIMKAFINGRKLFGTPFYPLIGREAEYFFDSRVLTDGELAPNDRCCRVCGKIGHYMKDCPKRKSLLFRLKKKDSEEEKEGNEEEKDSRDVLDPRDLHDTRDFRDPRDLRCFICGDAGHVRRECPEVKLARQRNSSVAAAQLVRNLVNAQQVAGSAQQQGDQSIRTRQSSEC
# Assay: TUTase assay (Zcchc11 assay, Lin28a-dependent polyuridylation of pre-let-7)
# Type: biochemical
# Conditions: Lin28a-dependent Zcchc11 (Z11) TUTase activity; read-out: Potency Lin28a-dep Z11 IC50
# Procedure: The purpose of the Zcchc11 assay is to determine compound potency against Zcchc11 enzyme through the measurement of IC50. Compound inhibition is measured as a function of polyuridine tails added to RNA substrates in the presence of active TUTase, UTP, and inhibitor. The Zcchc11 assay was done in a black, non-binding, 384 well plate (Corning #3575). All steps were performed at room temperature. For a typical assay, a 29 ul aliquot of assay buffer (50 mM HEPES pH 7.3, 150 mM KCl, 5 mM MgCl2, 10 mM DTT, 0.01% Triton X-100, 40 U/ml RNAsin (Promega)) containing LIN28A protein (final concentration: 10 nM) is added to each well. Next, 1 ul of compound in 100% DMSO is transferred from a compound dilution plate in which the compound is serially diluted. Next, 10 ul of a 5× mix of Zcchc11 and RNA substrate (5′-fluorescein labeled pre-let-7 miRNA (Dharmacon)) is added (final concentrations: 0.2 nM and 2 nM, respectively). The plate is placed on a plate shaker for 30 seconds to produce mixing, then incubated for 30 minutes. Next, 10 ul of a 5× mix of UTP and the quenching probe (3′-rhodamine labeled A20, polyadenosine nucleotide, (IDT)) is added (final concentrations: 5 uM and 4 nM, respectively). The plate is immediately placed in a Biotek Cytation 5 plate reader, and the time-dependent decrease in fluorescein fluorescence resulting from annealing of the A20 probe to polyuridine tails is recorded, using the kinetics mode of the reader. Reaction rates are obtained using linear fits to the early portion of progress curves. IC50 values are calculated using a four parameter fit with 100% enzyme activity determined from the DMSO control and 0% activity from control samples lacking UTP.
# The LIN28A protein was expressed in and purified from E. coli, strain Rosetta II (Novagen). The entire coding sequence of the human, wild-type protein was cloned into expression vector pMAL (NEB), down-stream from a maltose-binding protein tag. The linker sequence contained a TEV protease cleavage site. The protein was purified from bacterial extracts using an MBP-Trap column (GE Healthcare Life Sciences), followed by tag cleavage and removal of the tag by ion-exchange chromatography. When necessary, contaminating bacterial RNA was removed using the procedure describe by Faehnle C R. et al. (2017) Multi-domain utilization by TUT4 and TUT7 in control of let-7 biogenesis. Nat Struct Mol Biol, 24:658-665.
# The Zcchc11 protein was expressed in and purified from HEK293 cells. A truncated protein comprising residues 212-1420 of the human sequence was cloned into expression vector pTT5 (Viva Biotech) down-stream from a maltose-binding protein tag. The linker sequence contained a TEV protease cleavage site, and a FLAG tag was added to the carboxyl terminus of the protein. The protein was purified from cell extracts using an MBP-Trap column (GE Healthcare Life Sciences), followed by tag cleavage and further enrichment of the full length construct using anti-FLAG affinity media (Sigma Aldrich).
# “+” represents an IC50 value that is greater than 50 μM; “++” represents an IC50 value that is greater than 10 μM and equal to or less than 50 μM; “+++” represents an IC50 value that is greater than 1 μM and equal to or less than 10 μM; and “++++” represents an IC50 value that is equal to or less than 1 μM.
row,SMILES,IC50 [µM]
1,"O=C(O)c1cn(-c2cnccn2)c2nc(N3CCC[C@@H]3COc3nnccc3Cl)c(Cl)cc2c1=O (racemic) [Compound 193, rac-(R)-6-chloro-7-(2-(((4-chloro-pyridazin-3-yl)oxy)methyl)pyrrolidin-1-yl)-4-oxo-1-(pyrazin-2-yl)-1,4-dihydro-1,8-naphthyridine-3-carboxylic acid]",1 to 10
2,"N#Cc1cc2c(=O)c(C(=O)O)cn(-c3cnc(N4CCC4)cn3)c2nc1N1CCC[C@@H]1COc1ncccc1F (racemic) [Compound 194, rac-(R)-1-(5-(azetidin-1-yl)pyrazin-2-yl)-6-cyano-7-(2-(((3-fluoropyridin-2-yl)oxy)methyl)pyrrolidin-1-yl)-4-oxo-1,4-dihydro-1,8-naphthyridine-3-carboxylic acid]",≤ 1
3,"CN(C)C(=O)OC[C@H]1CCCN1c1cc2c(cc1Cl)c(=O)c(C(=O)O)cn2-c1ccc(N2CC(N(C)C)C2)nc1 (racemic) [Compound 195, rac-(R)-6-chloro-1-(6-(3-(dimethyl-amino)azetidin-1-yl)pyridin-3-yl)-7-(2-(((dimethylcarbamoyl)oxy)methyl)pyrrolidin-1-yl)-4-oxo-1,4-dihydro-quinoline-3-carboxylic acid formic acid]",≤ 1
4,"COc1ccc(Cl)c(OC[C@H]2CC(C3CCC3)CN2c2cc3c(cc2Cl)c(=O)c(C(=O)O)cn3-c2ccc(N3CC(N(C)C)C3)nc2)n1 (mixture of isomers) [Compound 203, rac-6-chloro-7-((2R)-2-(((3-chloro-6-methoxy-pyridin-2-yl)oxy)methyl)-4-cyclobutyl-pyrrolidin-1-yl)-1-(6-(3-(dimethyl-amino)azetidin-1-yl)pyridin-3-yl)-4-oxo-1,4-dihydro-quinoline-3-carboxylic acid]",≤ 1
5,"CN(C)C1CN(c2ccc(-n3cc(C(=O)O)c(=O)c4cc(Cl)c(N5CC(C6CCC6)C[C@@H]5COc5ncccc5Cl)cc43)cn2)C1 (mixture of isomers) [Compound 205, rac-6-chloro-7-((2R)-2-((3-chloropyridin-2-yl)oxy)methyl)-4-cyclobutyl-pyrrolidin-1-yl)-1-(6-(3-(dimethyl-amino)azetidin-1-yl)pyridin-3-yl)-4-oxo-1,4-dihydro-quinoline-3-carboxylic acido-quinoline-3-carboxylic acid]",≤ 1
6,"CC(C)C1C[C@H](COc2ncccc2Cl)N(c2cc3c(cc2Cl)c(=O)c(C(=O)O)cn3-c2ccc(N3CC(N(C)C)C3)nc2)C1 (mixture of isomers) [Compound 223, Rac-6-chloro-7-((2R)-2-(((3-chloropyridin-2-yl)oxy)methyl)-4-isopropyl-pyrrolidin-1-yl)-1-(6-(3-(dimethyl-amino)azetidin-1-yl)pyridin-3-yl)-4-oxo-1,4-dihydro-quinoline-3-carboxylic acid]",≤ 1
7,"COc1ccc(Cl)c(OC[C@H]2CC(c3ccc(O)nc3)CN2c2cc3c(cc2F)c(=O)c(C(=O)O)cn3-c2ccc(N3CC(N(C)C)C3)nc2)n1 (mixture of isomers) [Compound 224, Formic acid compound with rac-7-((2R)-2-(((3-chloro-6-methoxy-pyridin-2-yl)oxy)methyl)-4-(6-hydroxy-pyridin-3-yl)pyrrolidin-1-yl)-1-(6-(3-(dimethyl-amino)azetidin-1-yl)pyridin-3-yl)-6-fluoro-4-oxo-1,4-dihydro-quinoline-3-carboxylic acid (1:1)]",≤ 1
8,"COc1ccc(Cl)c(OC[C@H]2CC(c3ccc(O)nc3)CN2c2cc3c(cc2Cl)c(=O)c(C(=O)O)cn3-c2ccc(N3CC(N(C)C)C3)nc2)n1 (mixture of isomers) [Compound 225, Rac-6-chloro-7-((2R)-2-(((3-chloro-6-methoxy-pyridin-2-yl)oxy)methyl)-4-(6-hydroxy-pyridin-3-yl)pyrrolidin-1-yl)-1-(6-(3-(dimethyl-amino)azetidin-1-yl)pyridin-3-yl)-4-oxo-1,4-dihydro-quinoline-3-carboxylic acid]",≤ 1
9,"COc1ccc(Cl)c(OC[C@H]2CC(C(C)C)CN2c2cc3c(cc2Cl)c(=O)c(C(=O)O)cn3-c2ccc(N3CC(N(C)C)C3)nc2)n1 (mixture of isomers) [Compound 227, Rac-6-chloro-7-((2R)-2-(((3-chloro-6-(11-oxidaneyl)pyridin-2-yl)oxy)methyl)-4-isopropyl-pyrrolidin-1-yl)-1-(6-(3-(dimethyl-amino)azetidin-1-yl)pyridin-3-yl)-4-oxo-1,4-dihydro-quinoline-3-carboxylic acid]",≤ 1
10,"COc1ccc(Cl)c(OC[C@H]2C[C@@H]3C[C@@H]3N2c2cc3c(cc2F)c(=O)c(C(=O)O)cn3-c2ccnc(N)c2)n1 (racemic) [Compound 230, Rac-1-(2-aminopyridin-4-yl)-7-((1R,3S,5R)-3-(((3-chloro-6-methoxy-pyridin-2-yl)oxy)methyl)-2-azabicyclo [3.1.0]hexan-2-yl)-6-fluoro-4-oxo-1,4-dihydro-quinoline-3-carboxylic acid]",≤ 1
11,"COc1ccc(Cl)c(OC[C@H]2C[C@@H]3C[C@@H]3N2c2cc3c(cc2Cl)c(=O)c(C(=O)O)cn3-c2ccnc(N)c2)n1 (racemic) [Compound 231, Rac-1-(2-aminopyridin-4-yl)-6-chloro-7-((1R,3S,5R)-3-(((3-chloro-6-methoxy-pyridin-2-yl)oxy)methyl)-2-azabicyclo [3.1.0]hexan-2-yl)-4-oxo-1,4-dihydro-quinoline-3-carboxylic acid]",≤ 1
12,"COc1ccc(Cl)c(OC[C@H]2C[C@H]3C[C@H]3N2c2cc3c(cc2F)c(=O)c(C(=O)O)cn3-c2ccc(N3CC(N(C)C)C3)nc2)n1 (racemic) [Compound 234, Rac-7-((1R,3R,5R)-3-(((3-chloro-6-methoxy-pyridin-2-yl)oxy)methyl)-2-azabicyclo [3.1.0]hexan-2-yl)-1-(6-(3-(dimethyl-amino)azetidin-1-yl)pyridin-3-yl)-6-fluoro-4-oxo-1,4-dihydro-quinoline-3-carboxylic acid]",≤ 1
